The values that follow come from PMC2939729 (Cancer cell, 2010).

In one test the target is BMK1 (Homo sapiens, UniProt Q13164). Nature of the test: EGF-induced BMK1 activation in HeLa cells. It counts as cell-based. As to conditions: 1 μM compound for one hour, EGF 17 min.
Another test relates to ERK1/2. Nature of the test: EGF-induced ERK1/2 activation in HeLa cells. It counts as cell-based, human. As to conditions: 1 μM compound for one hour, EGF 17 min.

BMK1, sequence (Q13164 whole entry): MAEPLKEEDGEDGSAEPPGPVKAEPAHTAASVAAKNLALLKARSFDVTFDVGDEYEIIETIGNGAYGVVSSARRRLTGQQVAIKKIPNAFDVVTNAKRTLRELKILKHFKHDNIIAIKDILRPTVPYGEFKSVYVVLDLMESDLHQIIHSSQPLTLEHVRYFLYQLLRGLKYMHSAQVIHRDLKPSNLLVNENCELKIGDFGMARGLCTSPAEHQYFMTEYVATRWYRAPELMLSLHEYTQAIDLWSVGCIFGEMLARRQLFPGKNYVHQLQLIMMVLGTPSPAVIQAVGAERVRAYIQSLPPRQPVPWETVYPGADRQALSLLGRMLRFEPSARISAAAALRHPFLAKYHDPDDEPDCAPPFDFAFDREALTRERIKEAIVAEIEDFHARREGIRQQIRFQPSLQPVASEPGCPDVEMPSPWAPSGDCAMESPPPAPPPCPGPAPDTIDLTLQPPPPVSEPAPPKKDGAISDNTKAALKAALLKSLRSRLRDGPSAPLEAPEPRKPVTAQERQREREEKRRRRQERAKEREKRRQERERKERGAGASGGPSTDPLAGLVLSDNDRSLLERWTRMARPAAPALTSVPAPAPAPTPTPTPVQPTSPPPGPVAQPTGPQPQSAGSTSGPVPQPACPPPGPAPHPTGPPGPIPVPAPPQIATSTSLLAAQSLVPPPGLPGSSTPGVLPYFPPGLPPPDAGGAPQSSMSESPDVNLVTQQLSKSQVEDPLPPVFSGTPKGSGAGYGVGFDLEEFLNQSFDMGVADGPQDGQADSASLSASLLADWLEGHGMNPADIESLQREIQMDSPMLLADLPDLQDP

As for `O=C(NOCC1CC1)c1ccc(F)c(F)c1Nc1ccc(I)cc1Cl` [PD184352, reference compound], the “Growth factor-induced activation of cellular BMK1” value on BMK1 is given as “not BMK1 activation”. Moreover, the “Growth factor-induced activation of cellular ERK1/2” value with ERK1/2 is given as “only blocked ERK1/2”.
